In brackets after ≈: the same amount, converted by molar mass.
Key:
[1] = system: Leishmania infantum; assay: Antileishmanial activity against Leishmania infantum MHOM/MA/67/ITMAP-263 axenic amastigotes assessed as inhibition of parasitic metabolic activity incubated for 48 hrs by steady Glow reagent based luminescence assay; type: functional, organism-based; settings: MHOM/MA/67/ITMAP-263, 48 h
[2] = system: Escherichia coli; assay: Antibacterial activity against Escherichia coli ATCC 25922 incubated for 24 hrs by broth microdilution method; type: functional; settings: ATCC 25922, 24 h
[3] = system: Pseudomonas aeruginosa; assay: Antibacterial activity against Pseudomonas aeruginosa ATCC 27853 incubated for 24 hrs by broth microdilution method; type: functional; settings: ATCC 27853, 24 h
[4] = system: Plasmodium falciparum; assay: Antiplasmodial activity against chloroquine-resistant Plasmodium falciparum FcB1 infected in RBC (unknown origin) incubated for 48 hrs by SYBR green dye based fluorescence analysis; type: functional, organism-based; settings: FcB1, 48 h
[5] = system: Helicobacter pylori; assay: Antibacterial activity against Helicobacter pylori CIP 103995 incubated for 72 hrs under microaerophilic conditions by broth microdilution method; type: functional; settings: CIP 103995, 72 h
[6] = Cytotoxicity against mouse RAW264.7 cells assessed as reduction in cell viability incubated for 48 hrs by MTT assay; type: cell-based
[7] = system: Staphylococcus aureus; assay: Antibacterial activity against Staphylococcus aureus ATCC 25923 incubated for 24 hrs by broth microdilution method; type: functional; settings: ATCC 25923, 24 h

| Compound | IC50 [1] | MIC [2] | MIC [3] | IC50 [4] | MIC [5] | CC50 at 48 h [6] | MIC [7] |
| --- | --- | --- | --- | --- | --- | --- | --- |
| C=C(C(C)C)[C@H](O)C[C@@H](C)[C@H]1CC[C@@]2(C)[C@@H]3CC[C@H]4[C@H](C)[C@@H](O[C@@H]5OC[C@@H](O)[C@H](O)[C@H]5O)CC[C@]4(O)CC3=CC[C@]12C | 5 µM | > 125 µg/mL | > 125 µg/mL | > 150 µM | 15.6 µg/mL (≈ 26.4 µM) | 24.2 µM | 62.5 µg/mL (≈ 106 µM) |
| C/C=C(\C(C)C)[C@H](O)C[C@@H](C)[C@H]1CC[C@@]2(C)[C@@H]3CC[C@H]4[C@H](C)[C@@H](O[C@@H]5O[C@@H](C)[C@H](O)[C@@H](O)[C@H]5O)CC[C@]4(O)CC3=CC[C@]12C | 5.2 µM | > 125 µg/mL | > 125 µg/mL | 61.3 µM | 31.3 µg/mL (≈ 50.6 µM) | 21.9 µM | > 125 µg/mL |
| C=C(C(C)C)[C@H](O)C[C@@H](C)[C@H]1CC[C@@]2(C)[C@@H]3CC[C@H]4[C@H](C)[C@@H](O[C@@H]5OC[C@H](O)[C@H](O)[C@H]5O)CC[C@]4(O)CC3=CC[C@]12C | 7.7 µM | > 125 µg/mL | > 125 µg/mL | 52.4 µM | 15.6 µg/mL (≈ 26.4 µM) | 26.6 µM | 31.3 µg/mL (≈ 53 µM) |
| C/C=C(\C(C)C)[C@H](O)C[C@@H](C)[C@H]1CC[C@@]2(C)[C@@H]3CC[C@H]4[C@H](C)[C@@H](O[C@@H]5OC[C@H](O)[C@H](O)[C@H]5O)CC[C@]4(O)CC3=CC[C@]12C | 6.3 µM | > 125 µg/mL | > 125 µg/mL | 53.7 µM | 15.6 µg/mL (≈ 25.8 µM) | 19.6 µM | 31.3 µg/mL (≈ 51.7 µM) |
| C=C(C(C)C)[C@H](O)C[C@@H](C)[C@H]1CC[C@@]2(C)[C@@H]3CC[C@H]4[C@H](C)[C@@H](O[C@@H]5O[C@@H](C)[C@H](O)[C@@H](O)[C@H]5O)CC[C@]4(O)CC3=CC[C@]12C | 6.7 µM | > 125 µg/mL | > 125 µg/mL | 55 µM | 31.3 µg/mL (≈ 51.7 µM) | 35.1 µM | > 125 µg/mL |
| C/C=C(\C(C)C)[C@H](O)C[C@@H](C)[C@H]1CC[C@@]2(C)[C@@H]3CC[C@H]4[C@H](C)[C@@H](O[C@@H]5OC[C@@H](O)[C@H](O)[C@H]5O)CC[C@]4(O)CC3=CC[C@]12C | 5.2 µM | > 125 µg/mL | > 125 µg/mL | 46.9 µM | 15.6 µg/mL (≈ 25.8 µM) | 30.3 µM | > 125 µg/mL |
| C[C@@H]1[C@H](O)[C@@H](C)/C=C/C=C/C=C/C=C/C=C/C=C/C=C/[C@H](O[C@@H]2O[C@H](C)[C@@H](O)[C@H](N)[C@@H]2O)C[C@@H]2O[C@](O)(C[C@@H](O)C[C@@H](O)[C@H](O)CC[C@@H](O)C[C@@H](O)CC(=O)O[C@H]1C)C[C@H](O)[C@H]2C(=O)O [AMPHOTERICIN B] | 0.07 µM | – | – | – | – | – | – |
| CC[C@H]1OC(=O)[C@H](C)[C@@H](O[C@H]2C[C@@](C)(OC)[C@@H](O)[C@H](C)O2)[C@H](C)[C@@H](O[C@@H]2O[C@H](C)C[C@H](N(C)C)[C@H]2O)[C@](C)(OC)C[C@@H](C)C(=O)[C@H](C)[C@@H](O)[C@]1(C)O [CLARITHROMYCIN] | – | – | – | – | 0.01 µg/mL (≈ 0.0134 µM) | – | – |
| COc1cccc2c1C(=O)c1c(O)c3c(c(O)c1C2=O)C[C@@](O)(C(=O)CO)C[C@@H]3O[C@H]1C[C@H](N)[C@H](O)[C@H](C)O1 [DOXORUBICIN] | – | – | – | – | – | 0.8 µM | – |
| CN(C)[C@@H]1C(O)=C(C(N)=O)C(=O)[C@@]2(O)C(O)=C3C(=O)c4c(O)cccc4[C@@](C)(O)[C@H]3C[C@@H]12 [TETRACYCLINE] | – | 2 µg/mL (≈ 4.5 µM) | 16 µg/mL (≈ 36 µM) | – | – | – | 0.5 µg/mL (≈ 1.13 µM) |

Reference: ChEMBL document CHEMBL4414669, “Structural Characterization and Anti-infective Activity of 9,10-Seco-29-norcycloartane Glycosides Isolated from the Flowers of the Peruvian Medicinal Plant Cordia lutea” (J Nat Prod, 2019)
